Measurements: patent publication US6410782B1, “Diphosphonic acid salts for the treatment of osteoporosis” (Geange Ltd., priority 1997, dated 2002)
Where a name gives a salt, the structure may show the parent alone.

Tests used:
[1] = test system: N-acetylglycosaminidase (as osteoclastic activity index); settings: scalp slices of new-born mouse, tissue culture; starting from the 10 μmolar concentration
Protocol: (§1) A study on a tissue culture (scalp slices of new-born mouse prepared according to the method described by A. Togari, Gen. Pharmacol. 24, 1133, 1993) was performed. At the end of the culture period, the tissue added μmolar concentrations of the title product, was homogenised in saline plus 0.1% Triton X-100.
(§2) The obtained homogenate was used to determine alkaline phosphatase (as osteoblastic activity index) and N-acetylglycosaminidase (as osteoclastic activity index).

[2] = test system: alkaline phosphatase (as osteoblastic activity index); settings: scalp slices of new-born mouse, tissue culture; starting from the 10 μmolar concentration
Protocol: as §1, §2

- osteoclastic activity (N-acetylglycosaminidase) [1]: inhibit the osteoclastic activity
SMILES: NCCCC(O)(P(=O)(O)O)P(=O)(O)O [alendronate trometamine, alendronate trometamine salt]
- osteoblastic activity (alkaline phosphatase) [2]: activate in a significant manner the osteoblastic activity
